Reference: patent US20060247156A1, “Use of neuropeptides for ligament, cartilage, and bone healing” (priority 2004, published 2006)
Several values for one entry are separate records, joined by “and”; a condition that tells them apart may be missing. Equal values may be shown once.

How the values were obtained:
[1] = test system: Bovine nucleus pulposus cells; test: Bovine nucleus pulposus (intervertebral disc) cell proliferation; type: cell-based; details: day 1, day 2, day 3
Protocol: Bovine calf spines and femoral condyles were obtained from a slaughterhouse and freshly transported to the laboratory. Nucleus pulposus tissue was carefully dissected, avoiding annular and endplate cartilage tissues, from each disc. Articular cartilage from femoral condyles was dissected in the same manner. […] Cells were harvested by overnight digestion with hyaluronidase and collagenase, followed by filtration. Cells were plated at a density of 1×10^5 cells/ml and incubated at 37° C. in 5% CO2 and 95% air in the presence of each neuropeptide or media only (control). At various time points in growth, cells were collected for proliferation and glycosaminoglycan (GAG) production assays. Varying concentrations of NPs were examined.
Well established colorimetric and luminescent assays (CellTiter 96® AQueous Non-radioactive Cell Proliferation and CellTiter-Glo® Luminescent Cell Viability Assays, Promega, Madison, Wis.) were used to quantify the effect of each NP on cell proliferation. In addition, corresponding cell cultures during growth were digested with papain to release glycosaminoglycans (GAGs). Dimethyl methylene blue (DMMB) colorimetric assays were used to quantify the amount of GAGs in each culture.
Multiple samples for test and control groups were performed simultaneously. Statistical analyses using one way analysis of variance (ANOVA) with large degrees of freedom (n=12 for GAG assays; n=24 for proliferation assays) were performed to establish the significance of differences between test groups and control groups for each day of growth in culture.
The effect of neuropeptides on intervertebral disc cell proliferation was examined in order to elucidate further the pathophysiology of degenerative disc disease. Bovine nucleus pulposus cells were incubated with the same neuropeptides.

[2] = test system: bovine articular chondrocytes; test: Bovine chondrocytes proliferation assay (CellTiter 96 AQueous One); type: cell-based; details: CGRP 100 pg/ml, NPY 50 ng/ml, SP 500 pg/ml, VIP 1 ng/ml
Protocol: (§1) Cartilage chunks were then digested at 37° C. in DMEM containing 0.05% hyaluronidase for 30 minutes, followed by 0.05% collagenase digestion overnight. The digests were filtered through 40-micron nylon mesh and centrifuged at 600×g for 20 minutes. The cell pellets were then resuspended in DMEM and counted using a hemacytometer.
(§2) Cells were plated at 1×10^5 cells/well in 12-well plates (n=9) for proteoglycan assays and at 2×10^4 cells/well in 96-well plates (n=16) for proliferation assays. The culture volumes were 1 ml/well in 12-well plates and 100 μl/well in 96-well plates.
(§3) The plates were incubated at 37° C. in a humidified CO2 incubator for 3 days to allow the cells to recover from the harvesting procedure.
(§4) On Day 3 of treatment, 20 μl of CellTiter 96® AQueous One Solution Cell Proliferation Assay (Promega Corporation, Madison, Wis.) was added to each well of the 96-well cultures for 60 minutes, and cells in the 12-well plates were digested with 0.125 units of papain/well overnight. After the 60-minute incubation, the absorbance of the color generated by the cells in the 96-well plates was measured at wavelength 490 nm.

healing MCL = test: Local neuropeptide delivery to normally innervated healing MCL: mechanical testing, histomorphology; type: in vivo, rat; details: for histomorphology (H&E) of healing MCL: Example 7, two weeks of healing; for failure force / ultimate stress: Example 7: normally innervated rats, bilateral MCL rupture, mini-osmotic pump (SP 75, CGRP 10, NPY 65, VIP 100 pg/100 μl)
Protocol: Animal Model and Surgery: Forty female Wistar rats (200-250 g) were divided into five groups.
All rats underwent bilateral MCL rupture. Neuropeptides were then delivered ruptured MCLs unilaterally. Neuropeptide infused mini-osmotic pumps (Alzet Corp.) were implanted subcutaneously into the back of each rat. A small catheter running from the pump was run to an intramuscular space above the MCL and was secured.
Mechanical Testing: Mechanical testing was performed as described in Chapter 2. Briefly, animal hind limbs from all groups (n=5 for all groups) were disarticulated at the hip joint and stored at −80° C. until testing. On the day of testing, MCLs including intact femoral and tibial bone sections were excised for ex vivo testing. Ligament thickness and width was measured optically, and MCL area was estimated with elliptical geometry. For strain measurements, optical markers were placed onto the ligament tissue near the insertion sites. A small preload of 0.1N was applied to the ligaments in order to obtain a uniform starting point. The ligaments were then preconditioned to 1% strain for 10 cycles. After preconditioning, ligaments were pulled to failure at a rate of 10% per second.
Tissue displacement was obtained using video dimensional analysis using equations (1) and (2) supra. The mechanical properties that were examined in this study were maximum force, ultimate stress, strain at failure, elastic modulus, and area. Statistical analysis was performed using paired ttests to compare each treated MCL to its contralateral control (alpha=0.05).
Ligaments were immediately fixed in formalin fixative for three days at room temperature. Specimens were embedded in paraffin, sectioned (6 μm), mounted on slides, and stained with hematoxylin and eosin (H&E).

[3] = test system: bovine articular chondrocytes; test: Bovine chondrocytes glycosaminoglycan assay (DMMB); type: cell-based; details: Day 3 of treatment, individual wells
Protocol: as §1, §2, §3, §4
Following papain digestion of the cultures in 12-well plates, the amount of glycosaminoglycan (representative of proteoglycans) in each well was measured using the dimethylmethylene blue (DMMB) dye-binding assay. The results were statistically analyzed and plotted.

Row | Substance | disc cell proliferation compared to controls ([1]; CGRP 10 ng/ml, NPY (mcg/ml, SP 5 mcg/ml)) | proliferation of articular chondrocytes compared to controls (in words) [2] | histomorphology (H&E) of healing MCL (healing MCL) | healed MCL strength relative to intact MCL strength (healing MCL; Example 7: SP, two weeks of healing) [%] | failure force (healing MCL; two weeks of healing) | ultimate stress (healing MCL; two weeks of healing) [MPa] | Glycosaminoglycan Assay ([3]; SP 500 pg/ml) | disc cell viability ([1]; VIP 100 ng/ml) | Glycosaminoglycan Assay ([3]; VIP 1 ng/ml)
1 | Substance P [SP] | stimulate disc cell proliferation | stimulate proliferation | greatly improved tissue alignment | 60 | no change | 13.4±8.9 | 8.6 μg/dish and 9.1 μg/dish and 8.373 μg/dish and 7.011 μg/dish and 6.556 μg/dish and 7.192 μg/dish and 7.238 μg/dish and 7.283 μg/dish and 8.01 μg/dish | – | –
2 | vasoactive intestinal peptide [VIP] | – | stimulate proliferation | greatly improved tissue alignment | – | 10.2±3.0 N | 5.1±1.6 | – | negative influence | 7.419 μg/dish and 5.966 μg/dish and 6.874 μg/dish and 6.42 μg/dish and 6.965 μg/dish and 3.785 μg/dish and 6.147 μg/dish and 6.511 μg/dish and 8.328 μg/dish
